Results on three molecules are retold here after patent US20240016150A1, “MIXTURES CONTAINING METARYLPICOXAMID” (BASF SE, priority 2020, published 2024).

One assay relates to Alternaria solani. Put plainly: Microtest: activity against early blight. It counts as cell-based. Particulars: single active, MTP, 405 nm, 7 days after inoculation. How it is done:
The active compounds were formulated separately as a stock solution having a concentration of 10000 ppm in dimethyl sulfoxide. The stock solutions were mixed according to the ratio, pipetted onto a micro titer plate (MTP) and diluted with water to the stated concentrations. Example 2—Activity against early blight caused by Alternaria solani A spore suspension of Alternaria solani in an aqueous biomalt or yeast-bactopeptone-glycerine or DOB solution was then added. The plates were placed in a water vapor-saturated chamber at a temperature of 18° C. Using an absorption photometer, the MTPs were measured at 405 nm 7 days after the inoculation. The measured parameters were compared to the growth of the active compound-free control variant (100%) and the fungus-free blank value to determine the relative growth in % of the pathogens in the respective active compounds. These percentages were converted into efficacies. An efficacy of 0 means that the growth level of the pathogens corresponds to that of the untreated control; an efficacy of 100 means that the pathogens were not growing. The expected efficacies of active compound mixtures were determined using Colby's formula [R.S. Colby, “Calculating synergistic and antagonistic responses of herbicide combinations”, Weeds 15, 20-22 (1967)] and compared with the observed efficacies.

The next assay concerns Septoria tritici. Put plainly: Microtest: activity against leaf blotch on wheat. It counts as cell-based. The note with it: single active, MTP, 405 nm, 7 days after inoculation. How it is done: The active compounds were formulated separately as a stock solution having a concentration of 10000 ppm in dimethyl sulfoxide. The stock solutions were mixed according to the ratio, pipetted onto a micro titer plate (MTP) and diluted with water to the stated concentrations. EXAMPLE 1—Activity against leaf blotch on wheat caused by Septoria tritici A spore suspension of Septoria tritici in an aqueous biomalt or yeast-bactopeptone-glycerine or DOB solution was then added. The plates were placed in a water vapor-saturated chamber at a temperature of 18° C. Using an absorption photometer, the MTPs were measured at 405 nm 7 days after the inoculation. The measured parameters were compared to the growth of the active compound-free control variant (100%) and the fungus-free blank value to determine the relative growth in % of the pathogens in the respective active compounds. These percentages were converted into efficacies. An efficacy of 0 means that the growth level of the pathogens corresponds to that of the untreated control; an efficacy of 100 means that the pathogens were not growing. The expected efficacies of active compound mixtures were determined using Colby's formula [R.S. Colby, “Calculating synergistic and antagonistic responses of herbicide combinations”, Weeds 15, 20-22 (1967)] and compared with the observed efficacies.

The test system of the next assay is Phakopsora pachyrhizi. Kind of assay: Greenhouse: curative control of soybean rust on soybeans. It is filed as in vivo. The note with it: single active, sprayed to run-off, soybean seedlings, assessed after 14 days. On the procedure: EXAMPLE 1—Curative control of soybean rust on soybeans caused by Phakopsora pachyrhizi
Leaves of potted soybean seedlings were inoculated with spores of Phakopsora pachyrhizi. To ensure the success of the artificial inoculation, the plants were transferred to a humid chamber with a relative humidity of about 95% and 20 to 24 ? C for 24 h. The next day the plants were cultivated for 2 days in a greenhouse chamber at 23-27 °C and a relative humidity between 60 and 80%. Then the plants were sprayed to run-off with the previously described spray solution, containing the concentration of active ingredient or their mixture as described below. The plants were allowed to air-dry. Then the trial plants were cultivated for 14 days in a greenhouse chamber at 23-27 °C and a relative humidity between 60 and 80%. The extent of fungal attack on the leaves was visually assessed as % diseased leaf area.
The disease ratings (or diseased leaf area) were converted into efficacies.
An efficacy of 0 means that the infection level of the treated plants corresponds to that of the untreated control plants; an efficacy of 100 means that the treated plants were not infected.
The expected efficacies of active compound mixtures were determined using Colby's formula [R.S. Colby, “Calculating synergistic and antagonistic responses of herbicide combinations”, Weeds 15, 20-22 (1967)] and compared with the observed efficacies.

Turning to `CCC(=O)Oc1c(OC)ccnc1C(=O)N[C@@H](C)C(=O)O[C@@H](C)[C@@H](C)c1ccccc1C` [Compound I, [(1S,2S)-1-methyl-2-(o-tolyl)propyl] (2S)-2-[(4-methoxy-3-propanoyloxy-pyridine-2-carbonyl)amino]propanoate], the figures for the Observed efficacy in the assay on Alternaria solani (1 ppm), in the assay with Septoria tritici (4 ppm) and in the assay on Phakopsora pachyrhizi (1 ppm) were 0, 56 and 18, respectively.
In the case of `CON(Cc1ccc(-c2noc(C(F)(F)F)n2)cc1)C(=O)C1CC1` [Compound II-1, N-methoxy-N-[[4-[5-(trifluoromethyl)-1,2 ,4-oxadiazol-3-yl]phenyl]methyl]cyclopropanecarboxamide], the results for the Observed efficacy in the assay on Alternaria solani (0.016 ppm), in the assay with Phakopsora pachyrhizi (0.25 ppm) and in the assay on Phakopsora pachyrhizi (1 ppm) were 0, 0 and 14, respectively.
In the case of `O=C(NC1CCC1c1ccc(Cl)cc1Cl)c1cccnc1C(F)(F)F` (centres unmarked) [Compound II-2, N-[2-(2,4-dichlorophenyl)cyclobutyl]-2-(trifluoromethyl)pyridine-3-carboxamide], the Observed efficacy in the assay with Septoria tritici (0.063 ppm) was 12; with Septoria tritici (0.25 ppm), 49.
